Test results: ChEMBL document CHEMBL5223077, “Recent advances on synthesis and biological activities of aurones” (Bioorg Med Chem, 2021)
≈ marks a conversion by molar mass, not a printed value.

Assays:
[1] = test system: Mycobacterium tuberculosis; test: Antimycobacterial activity against multidrug resistant Mycobacterium tuberculosis; assay type: functional
[2] = test system: Mycobacterium tuberculosis; test: Antimycobacterial activity against extensively drug resistant Mycobacterium tuberculosis; assay type: functional

CC(=O)N1/C(=C\c2ccc(-c3ccsc3)cc2)C(=O)c2ccccc21
MIC [1]: 7.55 µM (≈ 2.61 µg/mL)
MIC [2]: 7.55 µM (≈ 2.61 µg/mL)
